Legend:
A375 cells (melanoma) = assay: Sulforhodamine B (SRB) antiproliferative assay, A375; assay type: cell-based; conditions: Homo sapiens, A-375, A375, 48 h, mean ± SEM of four to six independent experiments
Procedure: (§1) The antiproliferative properties of andrographolide and all prepared derivatives (2–26) were evaluated against a panel of different cancer cell lines, including human pancreatic ductal adenocarcinoma (PANC-1), colorectal adenocarcinoma (HCT116), melanoma (A375), breast adenocarcinoma (MCF-7) and a non-tumorigenic colon (CCD-18Co) cell line using the sulforhodamine B assay.
(§2) Human breast adenocarcinoma MCF-7, pancreatic ductal adenocarcinoma PANC-1, melanoma A375, and non-tumorigenic colon CCD-18Co cell lines were purchased from ATCC (Rockville, MD, USA). Human colorectal adenocarcinoma HCT116 cells were kindly provided by B. Vogelstein (The Johns Hopkins Kimmel Cancer Center, Baltimore, MD, USA). Tumor cells were routinely cultured in RPMI-1640 medium with UltraGlutamine from Biowest (VWR, Carnaxide, Portugal) supplemented with 10% fetal bovine serum (FBS) from Biowest (VWR, Carnaxide, Portugal), except for the PANC-1 cells, which were grown in DMEM (4.5 g/L glucose) with stable L-glutamine and sodium pyruvate and supplemented with 10% FBS. The non-tumorigenic CCD-18Co cells were cultured in EMEM (Lonza, VWR, Carnaxide, Portugal), supplemented with 10% FBS. All cells were incubated at 37 °C in a humidified atmosphere of 5% CO2. Routine mycoplasma testing was performed using the MycoAlert™ PLUS mycoplasma detection kit (Lonza).
(§3) For the evaluation of the compound effect on cell proliferation, human cell lines were seeded in 96-well plates at a density of 5.0 × 10^3 (HCT116, MCF-7, PANC-1, A375, and CCD-18Co) cells per well, for 24 h. Cells were then treated with serial dilutions of the compound (ranging from 0.63 to 30 µM), for an additional 48 h incubation period. The growth inhibitory effects were assessed by SRB assay, as described in [58], and the half-maximal inhibitory concentration (IC50 values) were determined for each cell line using the GraphPad Prism software version 7.0 (La Jolla, CA, USA). Culture medium containing a maximum of 0.05% dimethyl sulfoxide (DMSO) was used as negative control.

[1] = test system: CCD-18Co cells (non-tumorigenic colon); assay: Sulforhodamine B (SRB) antiproliferative assay, CCD-18Co; assay type: cell-based; conditions: Homo sapiens, CCD-18Co non-tumorigenic, 48 h, mean ± SEM of four to six independent experiments
Procedure: as §1, §2, §3

[2] = test system: PANC-1 cells (pancreatic ductal adenocarcinoma); assay: Sulforhodamine B (SRB) antiproliferative assay, PANC-1; assay type: cell-based, human; conditions: Homo sapiens; PANC-1, 48 h, SRB; mean ± SEM of four to six independent experiments
Procedure: as §1, §2, §3

[3] = test system: MCF-7 cells (breast adenocarcinoma); assay: Sulforhodamine B (SRB) antiproliferative assay, MCF-7; assay type: cell-based; conditions: Homo sapiens, MCF7, MCF-7, 48 h, mean ± SEM of four to six independent experiments
Procedure: as §1, §2, §3

[4] = test system: HCT116 cells (colorectal adenocarcinoma); assay: Sulforhodamine B (SRB) antiproliferative assay, HCT116; assay type: cell-based; conditions: Homo sapiens, HCT-116, HCT116, 48 h, mean ± SEM of four to six independent experiments
Procedure: as §1, §2, §3

Compound | IC50 (A375 cells (melanoma)) | IC50 [1] | IC50 [2] | IC50 [3] | IC50 [4]
C=C1CC[C@@H]2[C@](C)(COC(C)=O)[C@H](OC(C)=O)CC[C@@]2(C)[C@@H]1C[C@@H](C1=CCOC1=O)n1cc(-c2ccc(-c3ccccc3)cc2)nn1 [Compound 21] | 1.3 ± 0.3 µM | 4.4 ± 0.8 µM | 3.5 ± 0.3 µM | 10.4 ± 0.7 µM | 1.2 ± 0.2 µM
C=C1CC[C@@H]2[C@](C)(COC(C)=O)[C@H](OC(C)=O)CC[C@@]2(C)[C@@H]1C[C@H](C1=CCOC1=O)n1cc(-c2ccncc2)nn1 [Compound 22, (12R)-4-(4-pyridine)-1,2,3-triazole-3,19-diacetoxy-14-deoxy-andrographolide] | 1.3 ± 0.2 µM | 3.2 ± 0.9 µM | 5 ± 0.4 µM | 5.9 ± 0.1 µM | 1.6 ± 0.3 µM
C=C1CC[C@@H]2[C@](C)(COC(C)=O)[C@H](OC(C)=O)CC[C@@]2(C)[C@@H]1C[C@@H](C1=CCOC1=O)n1cc(-c2ccncc2)nn1 [Compound 23, (12S)-4-(4-pyridine)-1,2,3-triazole-3,19-diacetoxy-14-deoxy-andrographolide] | 3.3 ± 1 µM | 4.1 ± 0.9 µM | 6.3 ± 1.9 µM | 11 ± 0.2 µM | 2.8 ± 0.8 µM
C=C1CC[C@@H]2[C@](C)(COC(C)=O)[C@H](OC(C)=O)CC[C@@]2(C)[C@@H]1C[C@H](C1=CCOC1=O)n1cc(-c2ccccn2)nn1 [Compound 24, (12R)-4-pyridine-1,2,3-triazole-3,19-diacetoxy-14-deoxy-andrographolide] | 1.3 ± 0.3 µM | 4.6 ± 1.4 µM | 1.8 ± 0.1 µM | 7 ± 0.2 µM | 6.7 ± 3.2 µM
C=C1CC[C@@H]2[C@](C)(COC(C)=O)[C@H](OC(C)=O)CC[C@@]2(C)[C@@H]1C[C@H](C1=CCOC1=O)n1cc(-c2ccsc2)nn1 [Compound 25, (12R)-4-(3-thiophene)-1,2,3-triazole-3,19-diacetoxy-14-deoxy-andrographolide] | 1.8 ± 0.3 µM | 8.9 ± 0.2 µM | 4.5 ± 2 µM | 6.9 ± 0.1 µM | 1.7 ± 0.3 µM
C=C1CC[C@@H]2[C@](C)(COC(C)=O)[C@H](OC(C)=O)CC[C@@]2(C)[C@@H]1C[C@@H](C1=CCOC1=O)n1cc(-c2ccsc2)nn1 [Compound 26, (12S)-4-(3-thiophene)-1,2,3-triazole-3,19-diacetoxy-14-deoxy-andrographolide] | 1.4 ± 0.1 µM | 6.2 ± 1.4 µM | 4.3 ± 1.4 µM | 6.1 ± 0.2 µM | 1.3 ± 0.1 µM
COc1cc([C@@H]2c3cc4c(cc3[C@@H](O[C@@H]3O[C@@H]5CO[C@@H](C)O[C@H]5[C@H](O)[C@H]3O)[C@H]3COC(=O)[C@H]23)OCO4)cc(OC)c1O [Etoposide, reference compound] | 0.82 ± 0.07 µM | 0.76 ± 0.01 µM | 2.8 ± 0.05 µM | 1.8 ± 0.03 µM | 0.65 ± 0.09 µM

Source: publication PMC12114840, “Exploring the Anticancer Properties of 1,2,3-Triazole-Substituted Andrographolide Derivatives” (Pharmaceuticals, 2025)
